Data reported in patent US12446577B2 (priority 2018, dated 2025).

Key:
lettuce plants = test: Phytotoxicity on lettuce plants after spraying; type: in vivo; settings: 2.5% pelargonic acid, sprayed until run-off, n = 6, scale 0 to 100%
Description: A neutralization reaction was made with pelargonic acid (>97%) and choline hydroxide (45%) based on the titration curve (FIG. 1). Based on the titration curve, a stock solution of choline pelargonate (29.1% PLA (>97%) and 40.4% Choline hydroxide (45%)) was made by mixing 14.55 mL pelargonic acid with 15.25 mL distilled water and afterwards the addition of 20.2 mL choline hydroxide. The choline pelargonate stock solution was diluted in distilled water to obtain a diluted choline pelargonate composition comprising about 2.5% pelargonic acid. The total concentration of choline pelargonate in the water spray solution was 37.08 g a.i./L (a.i.=active ingredient).
The next step was to assess the phytotoxicity of a composition comprising choline pelargonate on lettuce plants. As a control, plants were treated with water. The plants were also treated with a diluted pelargonic acid composition, including a diluted pelargonic acid solution based on the commercial product Beloukha (Belchim Crop Protection).
Lettuce plants were sprayed with a small hand sprayer until run-off with the respective compositions and incubated at 20° C. Each composition was tested with a setup consisting out of six plants. A visual assessment was made on lettuce plants after spraying. The effect of phytotoxicity (necrosis or discolouration) was scored by a scale from 0 to 100%, with 0% no phytotoxicity and 100% fully phytotoxicity on plants.

Sclerotinia minor = test: Mycelium growth inhibition on PDA (Example 7); type: cell-based; settings: 3 days at 25° C; for Average mycelium diameter: n = 4
Description: (§1) Strains used for this trial were kept and refreshed on Potato Dextrose Agar (PDA) at 25° C.
(§2) To begin, a quantity of test product was directly added in a certain volume of PDA (about 20 mL/petri dish) (Table 11). Plugs of agar (diameter 10 mm) from one week-old cultures were placed at the centre of the PDA plates. Each object was performed in 4 repetitions. The petri dishes were then incubated at 25° C. in the dark. After 3 and 6 days of incubation, the diameter of the colonies was measured in 2 perpendicular directions. The percentage of inhibition was calculated for each product/concentration compare to the untreated.

Rhizoctonia solani = test: Mycelium growth inhibition on PDA (Example 7); type: cell-based; settings: 3 days at 25° C; for Average mycelium diameter: n = 4
Description: as §1, §2

Sclerotinia sclerotiorum = test: Mycelium growth inhibition on PDA (Example 7); type: cell-based; settings: 3 days at 25° C; for Average mycelium diameter: n = 4
Description: as §1, §2

Botrytis cinerea = test: Mycelium growth inhibition on PDA (Example 7); type: cell-based; settings: 3 days at 25° C; for Average mycelium diameter: n = 4
Description: as §1, §2

Pythium ultimum = test: Mycelium growth inhibition on PDA (Example 7); type: cell-based; settings: 3 days at 25° C; for Average mycelium diameter: n = 4
Description: as §1, §2

[1] = tested on: Phytophthora infestans strain 1813E11; type: in vivo; settings: 100 ppm
Plasmopara viticola = Plasmopara viticola grapevine leaf disc test; type: in vivo; settings: copper hydroxide 2 g/L, preventive spray; 7 days after the artificial inoculation
Description: A stock solution of choline pelargonate (29.1% PLA and 40.4% Choline hydroxide, pH 8.82) was made by mixing 14.55 mL PLA with 15.25 mL distilled water and afterwards the addition of 20.2 mL of Choline hydroxide. The choline pelargonate stock solution (42.04%) was diluted in order to create a solution with a final concentration of choline pelargonate equal to 1 mL/L and 10 mL/L. The two choline pelargonate solutions, water as negative control and copper hydroxide (2 g/L) as positive control were used for this test. For each object 4 Petri plates were prepared and each plate contains 5 grapevine leaf discs (see Table 8 below).
Leaf discs preparation: leaf discs (diameter 19 mm) were prepared from grapevine cuttings (variety Pinot Nero Entav 115) using the young leaves. 5 leaf discs were placed in each Petri Plate on autoclaved paper (4 layers), the paper was previously wetted by adding 8.5 mL of sterile water in each plate. The leaf discs were placed on the paper with the abaxial side upward.
Test products application and pathogen inoculation: leaf discs were treated with the test products at 11.30 A.M (i.e. a preventive application) and the leaves were allowed to dry. The products were sprayed with a small hand sprayer; 5 sprays were applied on each plate. The same day at 16.30 a suspension of P. viticola spores at final concentration of 2*10^5 spore/mL was applied (5 hours after test product application) on the leaf discs. The inoculated plates were incubated overnight in the dark at 25° C. The following day, the leaf discs were dried under the laminar flow and then placed back at 25° C. The disease assessment was done 7 days after the artificial inoculation.

Row | SMILES | % efficacy compared to control (Abbott) (Sclerotinia minor; 0.042% a.i. in PDA) [%] | Average mycelium diameter (Sclerotinia minor; 0.042% a.i. in PDA) [mm] | % efficacy compared to control (Abbott) (Sclerotinia minor; 0.42% a.i. in PDA) [%] | Average mycelium diameter (Sclerotinia minor; 0.42% a.i. in PDA) [mm] | % efficacy compared to control (Abbott) (Rhizoctonia solani; 0.042% a.i. in PDA) [%] | Average mycelium diameter (Rhizoctonia solani; 0.042% a.i. in PDA) [mm] | % efficacy compared to control (Abbott) (Rhizoctonia solani; 0.42% a.i. in PDA) [%] | Average mycelium diameter (Rhizoctonia solani; 0.42% a.i. in PDA) [mm] | % efficacy compared to control (Abbott) (Sclerotinia sclerotiorum; 0.042% a.i. in PDA) [%] | Average mycelium diameter (Sclerotinia sclerotiorum; 0.042% a.i. in PDA) [mm] | % efficacy compared to control (Abbott) (Sclerotinia sclerotiorum; 0.42% a.i. in PDA) [%] | Average mycelium diameter (Sclerotinia sclerotiorum; 0.42% a.i. in PDA) [mm] | % efficacy compared to control (Abbott) (Botrytis cinerea; 0.042% a.i. in PDA) [%] | Average mycelium diameter (Botrytis cinerea; 0.042% a.i. in PDA) [mm] | % efficacy compared to control (Abbott) (Botrytis cinerea; 0.42% a.i. in PDA) [%] | Average mycelium diameter (Botrytis cinerea; 0.42% a.i. in PDA) [mm] | % efficacy compared to control (Abbott) (Pythium ultimum; 0.042% a.i. in PDA) [%] | Average mycelium diameter (Pythium ultimum; 0.042% a.i. in PDA) [mm] | % efficacy compared to control (Abbott) (Pythium ultimum; 0.42% a.i. in PDA) [%] | Average mycelium diameter (Pythium ultimum; 0.42% a.i. in PDA) [mm] | also measured
1 | CCCCCCCCC(=O)O [Pelargonic acid, pelargonic acid, reference compound] | – | – | – | – | – | – | – | – | – | – | – | – | – | – | – | – | – | – | – | – | Phytotoxicity (%) evaluation on lettuce plants (lettuce plants; 0 DAA): 0.00%; Phytotoxicity (%) evaluation on lettuce plants (lettuce plants; 1 DAA): 60.00%; Phytotoxicity (%) evaluation on lettuce plants (lettuce plants; 2 DAA): 60.83%; Phytotoxicity (%) evaluation on lettuce plants (lettuce plants; 7 DAA): 70.00%
2 | CCCCCCCCCC(=O)[O-].C[N+](C)(C)CCO [TMAD, choline decanoate] | 98 | 1.5 ± 1.8 | 99 | 0.5 ± 0.6 | 48 | 27.3 ± 6.9 | 99 | 0.4 ± 0.8 | 97 | 2.1 ± 1.7 | 100 | 0.0 ± 0.0 | 84 | 7.0 ± 10.7 | 95 | 2.0 ± 4.0 | 100 | 0.0 ± 0.0 | 100 | 0.0 ± 0.0 | –
3 | O=[N+]([O-])c1cc(C(F)(F)F)c(Cl)c([N+](=O)[O-])c1Nc1ncc(C(F)(F)F)cc1Cl [Fluazinam] | – | – | – | – | – | – | – | – | – | – | – | – | – | – | – | – | – | – | – | – | Disease severity (%) on potato leaf discs, Mean ([1]; mean of 5 leaf discs, six days after inoculation): 0%; efficacy ([1]; potato leaf discs): 100%; Disease severity (%) on potato leaf discs ([1]; single leaf discs a-e, six days after inoculation): 0%
4 | [Cu+2].[OH-].[OH-] [copper, copper hydroxide, reference compound] | – | – | – | – | – | – | – | – | – | – | – | – | – | – | – | – | – | – | – | – | disease symptoms on the leaf discs (Plasmopara viticola): did not show any disease symptoms
5 | CCCCCCCC(=O)[O-].C[N+](C)(C)CCO [TMAO, choline octanoate] | 96 | 2.5 ± 2.9 | 100 | 0.0 ± 0.0 | 64 | 18.9 ± 3.8 | 100 | 0.0 ± 0.0 | 98 | 1.3 ± 0.3 | 100 | 0.0 ± 0.0 | 72 | 12.1 ± 11.0 | 100 | 0.0 ± 0.0 | 100 | 0.0 ± 0.0 | 100 | 0.0 ± 0.0 | –
